Results from US7741344B2, “Process for preparing purified S-BEL and R-BEL and compositions thereof” (Washington University in St. Louis, priority 2002, dated 2010).

Key:
[1] = tested on: membrane-bound phosphatidate phosphohydrolase (PAP-2); experiment: Membrane-bound phosphatidate phosphohydrolase activity of A-10 cell membrane fraction; type: biochemical, rat; details: concentrations up to 200 μM BEL; FIG. 6A
Procedure: (§1) Measurement of Cytosolic and Membrane-bound Phosphatidate Phosphohydrolase Activities—A-10 cells were grown to confluency, washed twice in ice-cold phosphate-buffered saline, and harvested in lysis buffer (50 mM Tris-HCl, pH 7.4 containing 0.25 M sucrose and 0.2 mM DTT). After brief sonication utilizing a Vibra-Cell VC4O sonicator (5×1 s pulses at 30% power), the lysed cell suspension was centrifuged at 100,000×g for 1 hr to separate cytosolic and membrane fractions. In some tests, A-10 cells were washed and pretreated with BEL or ethanol vehicle (as described above for tests examining [^3H]-AA liberation) before isolation of cell homogenates. […] Reactions were terminated with 900 μL of 5% acetic acid and extracted into chloroform by the method of Bligh and Dyer (38) prior to separating dipaliitoyl glycerol by TLC utilizing chloroform: methanol: water (65:35:2) as the mobile phase prior to quantification by scintillation spectrometry.
(§2) A-10 cells plated on 100 mm dishes were washed 2× in ice-cold PBS and harvested in lysis buffer (50 mM Tris-HCl, pH 7.4 containing 0.25 M sucrose and 0.2 mM DTT). […] In panel B, intact A-10 cells were washed and pretreated with BEL or ethanol vehicle (as described in FIG. 5) before isolation of the cell homogenate and quantification of phosphatidate phosphohydrolase activity as described above. […]

[2] = tested on: purified recombinant iPLA2β; experiment: Assay of iPLA2β inhibition by BEL (radiolabeled phospholipid substrate); type: biochemical; details: FIG. 4A
Procedure: Recombinant iPLA2 Enzymes—Recombinant iPLA2β was expressed and purified from Sf9 cells as previously described (35).
Assay of iPLA2β and iPLA2γ Inhibition by BEL—Purified recombinant iPLA2β or Sf9 cell membranes containing recombinant iPLA2γ were incubated with (R) BEL, (S) BEL, racemic BEL, or ethanol vehicle for 3 mm at 22° C. in the presence of 100 mM Tris-HCl (pH 7.0) and 4 mM EGTA (for iPLA2β) or 100 mM Tris-acetate (pH 8.0) and 4 mM EGTA (for iPLA2γ). The concentration of BEL used for each test ranged from 0 to 16 μM. L-α-1-palmitoyl-2-[1^14C]-arachidonyl-phosphatidylcholine (5 μM final concentration) or L-α-1-palmitoyl-2-[1-^14C]-oleoyl-phosphatidylcholine (5 μM final concentration) in ethanol was then added to each sample and incubated at 37° C. for 2 min. Reactions were terminated by extraction of radiolabeled products into butanol, and reactants and products were separated by thin layer chromatography using Whatman LK6D 60 Å Silica Gel plates with petroleum ether/ethyl ether/acetic acid (70:30:1) as the mobile phase. Regions corresponding to the migration of a fatty acid standard visualized by iodine staining were scraped into vials and radioactivity was quantified by scintillation spectrometry.
Panel A—Purified recombinant iPLA2β (1 μg/ml) in 100 mM Tris-HCl, pH 7.3 containing 1 mM EGTA was preincubated at 22° C. for 3 mm in the presence of the indicated concentrations of (R)-, (S)-, or rac-BEL or ethanol vehicle alone (1% final concentration). Radiolabeled substrate (L-α-1-palmitoyl-2-[1-^14C]-arachidonyl-phosphatidylcholine, 5 μM final concentration) was then added to each reaction and incubated at 37° C. for 2 min. Reactions were terminated by extraction of remaining substrate and products into butanol, separation by TLC, and quantification of released radiolabeled fatty acid by scintillation spectrometry as described in Experimental Procedures.

[3] = tested on: cytosolic phosphatidate phosphohydrolase (PAP-1); experiment: Cytosolic phosphatidate phosphohydrolase activity of A-10 cell cytosol fraction; type: biochemical, rat; details: concentrations up to 200 μM BEL; FIG. 6A
Procedure: as §1, §2

With `O=C1OC(=CBr)CCC1c1cccc2ccccc12` (racemic) [rac-BEL, Racemic (E)-6-(bromomethylene)-3-(1-naphthalenyl)-2H-tetrahydropyran-2-one] the “effect on membrane-bound (PAP-2) phosphatidate phosphohydrolase” value [1] was “lack of any effect”, the “inhibitory potency on iPLA2β relative to the enantiomers” value [2] was “intermediate of that of (R)-BEL and (S)-BEL” and the “effect on cytosolic (PAP-1) phosphatidate phosphohydrolase” value [3] was “lack of any effect”.
